Test results published in US6737383B1, “Herbicidal oxadiazolidines” (priority 1999, dated 2004).

Columns and labels:
bedstraw = experiment: Test B pre/postemergence bedstraw; format: in vivo, Galium aparine
Method in brief: (§1)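 Response is a visual 0-to-10 score relative to untreated plants, where 0 means no effect and 10 means complete control, taken twelve to sixteen days after application. Treatments went onto soil at planting and onto foliage of 1- to 4-leaf plants, using a surfactant-containing non-phytotoxic solvent.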

blackgrass = experiment: Test B pre/postemergence blackgrass; format: in vivo, Alopecurus myosuroides
Method in brief: as §1

surinam grass = experiment: Test B pre/postemergence surinam grass; format: in vivo, Brachiaria decumbens
Method in brief: as §1

cocklebur = experiment: Test B pre/postemergence cocklebur; format: in vivo, Xanthium strumarium
Method in brief: as §1

corn = experiment: Test B pre/postemergence corn; format: in vivo, Zea mays
Method in brief: as §1

crabgrass = experiment: Test B pre/postemergence crabgrass; format: in vivo, Digitaria sanguinalis
Method in brief: as §1

morningglory = experiment: Test B pre/postemergence morningglory; format: in vivo, Ipomoea hederacea
Method in brief: as §1

pigweed = experiment: Test B pre/postemergence pigweed; format: in vivo, Amaranthus retroflexus
Method in brief: as §1

rape = experiment: Test B pre/postemergence rape; format: in vivo, Brassica napus
Method in brief: as §1

sugar beet = experiment: Test B pre/postemergence sugar beet; format: in vivo, Beta vulgaris
Method in brief: as §1

velvetleaf = experiment: Test B pre/postemergence velvetleaf; format: in vivo, Abutilon theophrasti
Method in brief: as §1

wheat = experiment: Test B pre/postemergence wheat; format: in vivo, Triticum aestivum
Method in brief: as §1

wild oat = experiment: Test B pre/postemergence wild oat; format: in vivo, Avena fatua
Method in brief: as §1

purple nutsedge = experiment: Test B pre/postemergence purple nutsedge; format: in vivo, Cyperus rotundus
Method in brief: as §1

smallflower flatsedge = experiment: Test B flood test smallflower flatsedge; format: in vivo, Cyperus difformis
Method in brief: (§2)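 Read-out is a visual response score from 0 (no effect) to 10 (complete control), assigned by comparison with untreated controls. Treatment was applied at the 2-leaf stage, and plants stayed in the greenhouse for twelve to sixteen days before scoring.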

duck salad = experiment: Test B flood test duck salad; format: in vivo, Heteranthera limosa
Method in brief: as §2

[1] = Preemergence, Rate 31 g/ha, visual rating, scale 0 to 10 (0 no effect, 10 complete control)
[2] = Preemergence, Rate 62 g/ha, scale of 0 to 10 where 0 is no effect and 10 is complete control
[3] = Preemergence, Rate 250 g/ha, scale of 0 to 10 where 0 is no effect and 10 is complete control
[4] = Rate 31 g/ha, Postemergence, scale 0 to 10
[5] = Rate 62 g/ha, Postemergence, scale 0 to 10, 0 no effect, 10 complete control
[6] = Rate 125 g/ha, Postemergence, scale of 0 to 10 where 0 is no effect and 10 is complete control
[7] = Rate 125 g/ha, Preemergence, scale of 0 to 10 where 0 is no effect and 10 is complete control
[8] = Rate 250 g/ha, Postemergence, scale of 0 to 10 where 0 is no effect and 10 is complete control
[9] = Rate 31 g/ha, Pre-emergence section (flood test species), scale 0 to 10
[10] = Rate 62 g/ha, headed Pre-emergence (flood test species), scale 0 to 10 (0 no effect, 10 complete control)
[11] = Rate 125 g/ha, Pre-emergence, flood test species, scale 0 to 10 where 0 is no effect and 10 is complete control
[12] = Rate 250 g/ha, Pre-emergence, flood-test species, scale 0 to 10, 0 is no effect, 10 is complete control

CC(Cl)=CCn1c(=O)on(C(=O)N(c2ccc(F)cc2)C(C)C)c1=O [Compound 285]
Bedstraw plant response rating (bedstraw; [1]): 0
Bedstraw plant response rating (bedstraw; [2]): 0
Bedstraw plant response rating (bedstraw; [3]): 8
Bedstraw plant response rating (bedstraw; [4]): 0
Bedstraw plant response rating (bedstraw; [5]): 0
Bedstraw plant response rating (bedstraw; [6]): 5
Bedstraw plant response rating (bedstraw; [7]): 0
Plant response rating, Bedstraw (bedstraw; [8]): 7
Blackgrass plant response rating (blackgrass; [1]): 0
Blackgrass plant response rating (blackgrass; [2]): 0
Blackgrass plant response rating (blackgrass; [3]): 5
Blackgrass plant response rating (blackgrass; [4]): 0
Blackgrass plant response rating (blackgrass; [5]): 0
Blackgrass plant response rating (blackgrass; [6]): 2
Blackgrass plant response rating (blackgrass; [7]): 4
Plant response rating, Blackgrass (blackgrass; [8]): 7
B. signalgrass plant response rating (surinam grass; [1]): 0
B. signalgrass plant response rating (surinam grass; [2]): 2
B. signalgrass plant response rating (surinam grass; [3]): 10
B. signalgrass plant response rating (surinam grass; [4]): 0
B. signalgrass plant response rating (surinam grass; [5]): 0
B. signalgrass plant response rating (surinam grass; [6]): 0
B. signalgrass plant response rating (surinam grass; [7]): 5
Plant response rating, B. signalgrass (surinam grass; [8]): 0
Cocklebur plant response rating (cocklebur; [1]): 0
Cocklebur plant response rating (cocklebur; [2]): 0
Cocklebur plant response rating (cocklebur; [3]): 0
Cocklebur plant response rating (cocklebur; [4]): 0
Cocklebur plant response rating (cocklebur; [5]): 0
Cocklebur plant response rating (cocklebur; [6]): 0
Cocklebur plant response rating (cocklebur; [7]): 0
Plant response rating, Cocklebur (cocklebur; [8]): 0
Corn plant response rating (corn; [1]): 0
Corn plant response rating (corn; [2]): 0
Corn plant response rating (corn; [3]): 0
Corn plant response rating (corn; [4]): 0
Corn plant response rating (corn; [5]): 0
Corn plant response rating (corn; [6]): 0
Corn plant response rating (corn; [7]): 0
Plant response rating, Corn (corn; [8]): 0
Crabgrass plant response rating (crabgrass; [1]): 0
Crabgrass plant response rating (crabgrass; [2]): 4
Crabgrass plant response rating (crabgrass; [3]): 8
Crabgrass plant response rating (crabgrass; [4]): 0
Crabgrass plant response rating (crabgrass; [5]): 0
Crabgrass plant response rating (crabgrass; [6]): 3
Crabgrass plant response rating (crabgrass; [7]): 8
Plant response rating, Crabgrass (crabgrass; [8]): 7
Morningglory plant response rating (morningglory; [1]): 0
Morningglory plant response rating (morningglory; [2]): 0
Morningglory plant response rating (morningglory; [3]): 0
Morningglory plant response rating (morningglory; [4]): 1
Morningglory plant response rating (morningglory; [5]): 3
Morningglory plant response rating (morningglory; [6]): 5
Morningglory plant response rating (morningglory; [7]): 0
Plant response rating, Morningglory (morningglory; [8]): 5
Redroot pigweed plant response rating (pigweed; [1]): 0
Redroot pigweed plant response rating (pigweed; [2]): 0
Redroot pigweed plant response rating (pigweed; [3]): 5
Redroot pigweed plant response rating (pigweed; [4]): 0
Redroot pigweed plant response rating (pigweed; [5]): 0
Redroot pigweed plant response rating (pigweed; [6]): 0
Redroot pigweed plant response rating (pigweed; [7]): 2
Plant response rating, Redroot pigweed (pigweed; [8]): 0
Rape plant response rating (rape; [1]): 0
Rape plant response rating (rape; [2]): 0
Rape plant response rating (rape; [3]): 3
Rape plant response rating (rape; [4]): 0
Rape plant response rating (rape; [5]): 0
Rape plant response rating (rape; [6]): 0
Rape plant response rating (rape; [7]): 0
Plant response rating, Rape (rape; [8]): 0
Sugarbeets plant response rating (sugar beet; [1]): 0
Sugarbeets plant response rating (sugar beet; [2]): 0
Sugarbeets plant response rating (sugar beet; [3]): 0
Sugarbeets plant response rating (sugar beet; [5]): 0
Sugarbeets plant response rating (sugar beet; [6]): 2
Sugarbeets plant response rating (sugar beet; [7]): 0
Plant response rating, Sugarbeets (sugar beet; [8]): 3
Velvetleaf plant response rating (velvetleaf; [1]): 0
Velvetleaf plant response rating (velvetleaf; [2]): 0
Velvetleaf plant response rating (velvetleaf; [3]): 3
Velvetleaf plant response rating (velvetleaf; [5]): 0
Velvetleaf plant response rating (velvetleaf; [6]): 0
Velvetleaf plant response rating (velvetleaf; [7]): 2
Plant response rating, Velvetleaf (velvetleaf; [8]): 1
Wheat plant response rating (wheat; [1]): 0
Wheat plant response rating (wheat; [2]): 0
Wheat plant response rating (wheat; [3]): 0
Wheat plant response rating (wheat; [5]): 0
Wheat plant response rating (wheat; [6]): 0
Wheat plant response rating (wheat; [7]): 0
Plant response rating, Wheat (wheat; [8]): 0
Wild oats plant response rating (wild oat; [1]): 0
Wild oats plant response rating (wild oat; [2]): 0
Wild oats plant response rating (wild oat; [3]): 3
Wild oats plant response rating (wild oat; [5]): 0
Wild oats plant response rating (wild oat; [6]): 0
Plant response rating, Wild oats (wild oat; [8]): 0
Nutsedge plant response rating (purple nutsedge; [1]): 0
Nutsedge plant response rating (purple nutsedge; [2]): 0
Nutsedge plant response rating (purple nutsedge; [3]): 0
Nutsedge plant response rating (purple nutsedge; [4]): 0
Nutsedge plant response rating (purple nutsedge; [5]): 0
Nutsedge plant response rating (purple nutsedge; [6]): 0
Nutsedge plant response rating (purple nutsedge; [7]): 0
Plant response rating, Nutsedge (purple nutsedge; [8]): 0
S. Flatsedge plant response rating (smallflower flatsedge; [9]): 0
S. Flatsedge plant response rating (smallflower flatsedge; [10]): 0
S. Flatsedge plant response rating (smallflower flatsedge; [11]): 0
S. Flatsedge plant response rating (smallflower flatsedge; [12]): 0
Ducksalad plant response rating (duck salad; [9]): 0
Ducksalad plant response rating (duck salad; [10]): 0
Ducksalad plant response rating (duck salad; [11]): 0
Ducksalad plant response rating (duck salad; [12]): 0
